Patent US12509467B2 (Hoffmann-La Roche Inc., priority 2020, dated 2025)

Molecular target: T1, human cGAS (residues 161-522) (Homo sapiens, UniProt Q8N884)
T1 construct: Recombinantly expressed purified human cGAS (residues 161-522) was used at 25 nM; made in house
Assay: cGAS Activity Assay—Malachite Green
Assay type: biochemical
In short: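 Coupled malachite-green phosphate detection was used: enzyme and compound in 20 mM TRIS pH 7.5, 5 mM MgCl2, 0.01% BSA with 80 μM ATP, 80 μM GTP and 100 nM ISD DNA, 4 h at RT in the dark.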

T1 sequence (Q8N884 161-522): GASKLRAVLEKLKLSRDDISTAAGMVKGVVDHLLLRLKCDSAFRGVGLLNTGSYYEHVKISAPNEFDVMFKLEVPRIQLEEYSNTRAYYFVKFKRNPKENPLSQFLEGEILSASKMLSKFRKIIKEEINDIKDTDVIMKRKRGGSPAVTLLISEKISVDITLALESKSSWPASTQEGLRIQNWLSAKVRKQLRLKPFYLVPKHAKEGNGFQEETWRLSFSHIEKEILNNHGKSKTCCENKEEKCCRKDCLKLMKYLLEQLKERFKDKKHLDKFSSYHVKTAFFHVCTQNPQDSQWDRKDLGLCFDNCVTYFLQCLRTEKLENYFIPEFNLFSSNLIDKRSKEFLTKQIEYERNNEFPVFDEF

O=c1nc(CCc2ccccc2)[nH]c2nc(NCc3ccc(Cl)cc3Cl)nn12 [Example 101, 2-[(2,4-Dichlorophenyl)methylamino]-5-(2-phenylethyl)-4H-[1,2,4]triazolo[1,5-a][1,3,5]-triazin-7-one]
IC50: 7.79 µM
